In the NIST ThermoML archive (doi:10.1021/je060271a):
“And” between values parts separate entries of the source, which are not always exact repeats. Identical values can stand only once.

Conditions: Liquid, Vibrating tube method

CCCCCCC(=O)OCC(COC(=O)CCCCCC)(COC(=O)CCCCCC)COC(=O)CCCCCC [pentaerythritol tetraheptanoate]
Conditions	mass density
323.14 K, 25915 kPa	972.2 kg/m3
323.14 K, 25942 kPa	972.3 kg/m3
323.14 K, 25974 kPa	972.2 kg/m3
323.14 K, 26002 kPa	972.3 kg/m3
323.14 K, 26088 kPa	972.3 kg/m3
323.14 K, 26774 kPa	972.7 kg/m3
323.14 K, 26808 kPa	972.6 kg/m3
323.14 K, 26837 kPa	972.6 kg/m3
323.14 K, 26866 kPa	972.9 kg/m3
323.14 K, 27024 kPa	972.9 kg/m3
323.14 K, 27055 kPa	972.9 kg/m3
323.14 K, 27085 kPa	972.9 kg/m3
323.14 K, 27114 kPa	973 kg/m3
323.14 K, 27150 kPa	973 kg/m3
323.14 K, 27179 kPa	972.9 kg/m3
323.14 K, 27214 kPa	973 kg/m3
323.14 K, 27244 kPa	973 kg/m3
323.14 K, 27274 kPa	973.1 kg/m3
323.14 K, 27565 kPa	973.2 kg/m3
323.14 K, 27596 kPa	973.2 kg/m3
323.14 K, 27731 kPa	973.3 kg/m3
323.14 K, 27762 kPa	973.3 kg/m3
323.14 K, 27825 kPa	973.3 kg/m3
323.14 K, 27863 kPa	973.4 kg/m3
323.14 K, 27895 kPa	973.4 kg/m3
323.14 K, 28027 kPa	973.5 kg/m3
323.14 K, 28373 kPa	973.8 kg/m3
323.14 K, 28406 kPa	973.7 kg/m3
323.14 K, 28439 kPa	973.7 kg/m3
323.14 K, 28757 kPa	973.8 kg/m3
323.14 K, 28791 kPa	973.9 kg/m3
323.14 K, 28831 kPa	973.9 kg/m3
323.14 K, 28904 kPa	973.9 kg/m3
323.14 K, 28938 kPa	974 kg/m3
323.14 K, 28973 kPa	974.1 kg/m3
323.14 K, 29048 kPa	974.1 kg/m3
323.14 K, 29083 kPa	974.1 kg/m3
323.14 K, 29124 kPa	974.1 kg/m3
323.14 K, 29158 kPa	974.1 kg/m3
323.14 K, 29193 kPa	974.1 kg/m3
323.14 K, 29227 kPa	974.2 kg/m3
323.14 K, 29270 kPa	974.2 kg/m3
323.14 K, 29304 kPa	974.3 kg/m3
323.14 K, 29346 kPa	974.3 kg/m3
323.14 K, 29381 kPa	974.2 kg/m3
323.14 K, 29416 kPa	974.2 kg/m3
323.14 K, 29451 kPa	974.2 kg/m3
323.14 K, 29494 kPa	974.4 kg/m3
323.14 K, 29529 kPa	974.4 kg/m3
323.14 K, 30197 kPa	974.6 kg/m3
323.14 K, 30480 kPa	974.8 kg/m3
323.14 K, 30518 kPa	975 kg/m3
323.14 K, 30556 kPa	974.9 kg/m3
323.14 K, 30596 kPa	974.9 kg/m3
323.14 K, 30642 kPa	975 kg/m3
323.14 K, 30681 kPa	975.1 kg/m3
323.14 K, 30728 kPa	975.2 kg/m3
323.14 K, 30768 kPa	975 kg/m3
323.14 K, 30807 kPa	975.1 kg/m3
323.14 K, 30846 kPa	975 kg/m3
323.14 K, 30893 kPa	975.2 kg/m3
323.14 K, 30933 kPa	975.1 kg/m3
323.14 K, 30973 kPa	975.1 kg/m3
323.14 K, 31020 kPa	975.2 kg/m3
323.14 K, 31060 kPa	975.2 kg/m3
323.14 K, 31108 kPa	975.2 kg/m3
323.14 K, 31148 kPa	975.2 kg/m3
323.14 K, 31188 kPa	975.3 kg/m3
323.14 K, 31237 kPa	975.2 kg/m3
323.14 K, 31277 kPa	975.4 kg/m3
323.14 K, 31319 kPa	975.3 kg/m3
323.14 K, 31359 kPa	975.4 kg/m3
323.14 K, 31408 kPa	975.4 kg/m3
323.14 K, 31448 kPa	975.4 kg/m3
323.14 K, 31497 kPa	975.6 kg/m3
323.14 K, 31539 kPa	975.5 kg/m3
323.14 K, 31580 kPa	975.4 kg/m3
323.14 K, 31621 kPa	975.5 kg/m3
323.14 K, 31671 kPa	975.6 kg/m3
323.14 K, 31712 kPa	975.5 kg/m3
323.14 K, 31762 kPa	975.8 kg/m3
323.14 K, 31804 kPa	975.8 kg/m3
323.14 K, 31847 kPa	975.7 kg/m3
323.14 K, 31898 kPa	975.6 kg/m3
323.14 K, 31940 kPa	975.7 kg/m3
323.14 K, 31982 kPa	975.8 kg/m3
323.14 K, 32450 kPa	976.1 kg/m3
323.14 K, 32496 kPa	976 kg/m3
323.14 K, 32540 kPa	976 kg/m3
323.14 K, 32584 kPa	976.2 kg/m3
323.14 K, 32637 kPa	976.1 kg/m3
323.14 K, 32681 kPa	976.1 kg/m3
323.14 K, 33266 kPa	976.4 kg/m3
323.14 K, 33360 kPa	976.5 kg/m3
323.14 K, 33416 kPa	976.4 kg/m3
323.14 K, 34625 kPa	977.3 kg/m3
323.15 K, 99.4 kPa	955.6 kg/m3
323.15 K, 99.5 kPa	955.5 kg/m3 and 955.6 kg/m3 and 955.7 kg/m3
323.15 K, 99.7 kPa	955.7 kg/m3 and 955.6 kg/m3
323.15 K, 99.8 kPa	955.7 kg/m3
323.15 K, 99.9 kPa	955.7 kg/m3 and 955.8 kg/m3 and 955.6 kg/m3
323.15 K, 100 kPa	955.7 kg/m3 and 955.8 kg/m3 and 955.6 kg/m3
323.15 K, 100.2 kPa	955.7 kg/m3 [middle of 4 runs]
323.15 K, 100.4 kPa	955.7 kg/m3 and 955.8 kg/m3 and 955.6 kg/m3
323.15 K, 100.5 kPa	955.6 kg/m3 and 955.7 kg/m3
323.15 K, 100.6 kPa	955.6 kg/m3 and 955.7 kg/m3 and 955.8 kg/m3
323.15 K, 100.7 kPa	955.8 kg/m3 and 955.7 kg/m3 and 955.5 kg/m3
323.15 K, 100.9 kPa	955.7 kg/m3
323.15 K, 101.1 kPa	955.6 kg/m3 and 955.7 kg/m3
323.15 K, 101.3 kPa	955.6 kg/m3
323.15 K, 101.5 kPa	955.8 kg/m3 and 955.7 kg/m3
323.15 K, 101.6 kPa	955.7 kg/m3
